Results as given in patent US20200079766A1, “MONOCYCLIC OGA INHIBITOR COMPOUNDS” (Janssen Pharmaceutica NV, priority 2016, published 2020).

Key:
[1] = tested on: OGA in HEK293 cells inducible for P301L mutant human Tau (isoform 2N4R); test: OGA cellular assay: immunocytochemical detection of O-GlcNAcylated proteins (CTD110.6 antibody) after 6 h incubation; type: cell-based; details: for Emax / EC50: Homo sapiens, HEK293, 6 h; for Emax / Cellular Emax (%): maximum = Thiamet G 200 uM; for EC50: read-out: Cellular hOGA, pEC50 (converted)
Description: HEK293 cells inducible for P301L mutant human Tau (isoform 2N4R) were established at Janssen. Thiamet-G was used for both plate validation (high control) and as reference compound (reference EC50 assay validation). OGA inhibition is evaluated through the immunocytochemical (ICC) detection of O-GlcNAcylated proteins by the use of a monoclonal antibody (CTD110.6; Cell Signaling, #9875) detecting O-GlcNAcylated residues as previoulsy described (Dorfmueller et al. 2010 Chemistry & biology, 17:1250). Inhibition of OGA will result in an increase of O-GlcNAcylated protein levels resulting in an increased signal in the experiment. Cell nuclei are stained with Hoechst to give a cell culture quality control and a rough estimate of immediate compounds toxicity, if any. ICC pictures are imaged with a Perkin Elmer Opera Phenix plate microscope and quantified with the provided software Perkin Elmer Harmony 4.1.
Cells were propagated in DMEM high Glucose (Sigma, # D5796) following standard procedures. 2 days before the cell assay cells are split, counted and seeded in Poly-D-Lysine (PDL) coated 96-wells (Greiner, #655946) plate at a cell density of 12,000 cells per cm^2 (4,000 cells per well) in 100 μl of Assay Medium (Low Glucose medium is used to reduce basal levels of GlcNAcylation) (Park et al. 2014 The Journal of biological chemistry 289:13519). At the day of compound test medium from assay plates was removed and replenished with 90 μl of fresh Assay Medium. 10 μl of compounds at a 10 fold final concentration were added to the wells. Plates were centrifuged shortly before incubation in the cell incubator for 6 hours. DMSO concentration was set to 0.2%. Medium is discarded by applying vacuum. For staining of cells medium was removed and cells washed once with 100 μl D-PBS (Sigma, # D8537). From next step onwards unless other stated assay volume was always 50 μl and incubation was performed without agitation and at room temperature. Cells were fixed in 50 μl of a 4% paraformaldehyde (PFA, Alpha aesar, #043368) PBS solution for 15 minutes at room temperature. […] Before analysis samples were washed 2 times manually for 5 minutes in ICC base buffer.
Imaging is performed using Perkin Elmer Phenix Opera using a water 20× objective and recording 9 fields per well. Intensity readout at 488 nm is used as a measure of O-GlcNAcylation level of total proteins in wells. To assess potential toxicity of compounds nuclei were counted using the Hoechst staining. IC50-values are calculated using parametric non-linear regression model fitting. As a maximum inhibition Thiamet G at a 200 uM concentration is present on each plate. In addition, a concentration response of Thiamet G is calculated on each plate.

[2] = biological target: T1, recombinant human Meningioma Expressed Antigen 5 (MGEA5), also referred to as O-GlcNAcase (OGA) (Homo sapiens, UniProt O60502); test: OGA biochemical assay: inhibition of FM-GlcNAc hydrolysis, fluorescence; protocol A (10 nM OGA, 1 h) or protocol B (2 nM OGA, 6 h); details: Enzymatic protocol B (2 nM OGA, 6 h); for IC50: read-out: Enzymatic hOGA, pIC50 (converted)
T1 construct: Full length OGA enzyme was purchased at OriGene (cat # TP322411); purchased OriGene TP322411
T1 sequence (O60502 1-916): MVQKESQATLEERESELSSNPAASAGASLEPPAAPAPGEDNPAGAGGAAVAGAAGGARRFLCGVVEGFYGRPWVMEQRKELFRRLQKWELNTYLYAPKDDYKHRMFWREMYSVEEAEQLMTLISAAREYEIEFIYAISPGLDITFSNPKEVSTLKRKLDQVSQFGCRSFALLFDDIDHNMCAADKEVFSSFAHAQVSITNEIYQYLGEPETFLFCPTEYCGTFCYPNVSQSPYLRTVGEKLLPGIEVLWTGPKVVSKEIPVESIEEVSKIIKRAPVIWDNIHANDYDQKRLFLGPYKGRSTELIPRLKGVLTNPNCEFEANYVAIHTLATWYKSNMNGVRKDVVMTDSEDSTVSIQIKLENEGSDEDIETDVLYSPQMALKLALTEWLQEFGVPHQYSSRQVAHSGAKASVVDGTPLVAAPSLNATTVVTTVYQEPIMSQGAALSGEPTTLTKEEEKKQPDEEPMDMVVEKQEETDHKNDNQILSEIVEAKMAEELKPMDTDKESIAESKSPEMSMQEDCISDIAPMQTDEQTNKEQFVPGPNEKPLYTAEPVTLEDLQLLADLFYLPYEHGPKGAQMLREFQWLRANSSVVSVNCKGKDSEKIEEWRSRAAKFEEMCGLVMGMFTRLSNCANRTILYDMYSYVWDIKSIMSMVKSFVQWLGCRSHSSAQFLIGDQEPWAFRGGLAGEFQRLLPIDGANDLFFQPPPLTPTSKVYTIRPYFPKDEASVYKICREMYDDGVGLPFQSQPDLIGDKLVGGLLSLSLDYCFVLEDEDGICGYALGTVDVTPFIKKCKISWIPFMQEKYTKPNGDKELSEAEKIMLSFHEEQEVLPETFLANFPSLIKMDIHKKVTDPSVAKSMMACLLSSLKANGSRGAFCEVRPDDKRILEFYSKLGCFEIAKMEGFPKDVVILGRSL
Text: The assay is based on the inhibition of the hydrolysis of fluorescein mono-3-D-N-Acetyl-Glucosamine (FM-GlcNAc) (Mariappa et al. 2015, Biochem J 470:255) by the recombinant human Meningioma Expressed Antigen 5 (MGEA5), also referred to as O-GlcNAcase (OGA). The hydrolysis FM-GlcNAc (Marker Gene technologies, cat # M1485) results in the formation of ß-D-N-glucosamineacetate and fluorescein. The fluorescence of the latter can be measured at excitation wavelength 485 nm and emission wavelength 538 nm. An increase in enzyme activity results in an increase in fluorescence signal. Full length OGA enzyme was purchased at OriGene (cat # TP322411). The enzyme was stored in 25 mM Tris.HCl, pH 7.3, 100 mM glycine, 10% glycerol at −20° C. Thiamet G and GlcNAcStatin were tested as reference compounds (Yuzwa et al. 2008 Nature Chemical Biology 4:483; Yuzwa et al. 2012 Nature Chemical Biology 8:393). The assay was performed in 200 mM Citrate/phosphate buffer supplemented with 0.005% Tween-20. 35.6 g Na2HPO42H2O (Sigma, # C0759) were dissolved in 1 L water to obtain a 200 mM solution. 19.2 g citric acid (Merck, #1.06580) was dissolved in 1 L water to obtain a 100 mM solution. pH of the sodiumphosphate solution was adjusted with the citric acid solution to 7.2. The buffer to stop the reaction consists of a 500 mM Carbonate buffer, pH 11.0. 734 mg
FM-GlcNAc were dissolved in 5.48 mL DMSO to obtain a 250 mM solution and was stored at −20° C. OGA was used at a 10 nM (protocol A) or 2 nM (protocol B) concentration and FM-GlcNAc at a 100 uM final concentration. Dilutions were prepared in assay buffer.
50 nl of a compound dissolved in DMSO was dispensed on Black Proxiplate™ 384 Plus Assay plates (Perkin Elmer, #6008269) and 3 μl fl-OGA enzyme mix added subsequently. Plates were pre-incubated for 60 min at room temperature and then 2 μl FM-GlcNAc substrate mix added. […] Plates were briefly centrifuged for 1 min at 1000 rpm and incubate at room temperature for 1 h (10 nM OGA, protocol A) or 6 h (2 nM OGA, protocol B). To stop the reaction 5 μl STOP buffer were added and plates centrifuge again 1 min at 1000 rpm. Fluorescence was quantified in the Thermo Scientific Fluoroskan Ascent or the PerkinElmer EnVision with excitation wavelength 485 nm and emission wavelength 538 nm.
For analysis a best-fit curve is fitted by a minimum sum of squares method. From this an IC50 value and Hill coefficient was obtained. High control (no inhibitor) and low control (saturating concentrations of standard inhibitor) were used to define the minimum and maximum values.

Row | Emax [2] [%] | IC50 [2] [nM] | Enzymatic Emax (%) [2] [%] | Enzymatic hOGA; pIC50 [2] | SMILES | Emax [1] [%] | EC50 [1] [nM] | Cellular hOGA; pEC50 [1] | Cellular Emax (%) [1] [%]
1 | 102 | 20 | – | – | CC(=O)Nc1ncc(CN2CCC(Cc3ncc(F)cc3C)C2)s1 (stereo not shown) [compound 104] | 89.4 | 58.9 | – | –
2 | 101 | 21.9 | – | – | CC(=O)Nc1ncc(CN2CC[C@H](Cc3ccc(C#N)cn3)C2)s1 [compound 46] | 85.9 | 47.9 | – | –
3 | 102 | 1.82 | – | – | CC(=O)Nc1ncc(CN2CCC[C@H](Cc3nc(C)cnc3C)C2)s1 [compound 128] | 93.2 | 39.8 | – | –
4 | 100 | 6.92 | – | – | Cc1cc(O[C@@H]2CCCN(C(C)c3ccc4nccnc4c3)C2)cc(C)n1 (mixture of isomers) [compound 19] | 73.3 | 1380 | – | –
5 | 97.9 | 105 | – | – | CC(=O)Nc1ncc(CN2CC[C@H](Cc3ccc(OC(F)(F)F)cn3)C2)s1 [compound 49] | 89.6 | 85.1 | – | –
6 | 104 | 178 | – | – | CC(=O)Nc1ncc([C@@H](C)N2CCC[C@@H](COc3cc(C)nc(C)c3)C2)s1 (single isomer, unassigned) [compound 135] | – | – | 6.3 | 67.9
7 | 101 | 3.89 | – | – | CC(=O)Nc1ncc(C(C)N2CCCC(COc3cc(C)nc(C)c3)C2)s1 (racemic) [compound 133] | 98.9 | 11.2 | – | –
8 | – | – | 101.8 | 7.91 | CC(=O)Nc1ncc(CN2CCC(Cc3cc(C)nc(C)n3)C2)s1 (stereo not shown) [compound 77] | – | – | 7.27 | 91.1
9 | 103 | 15.1 | – | – | CC(=O)Nc1ncc(CN2CCC[C@@H](COc3cc(C)nc(C)c3)C2)s1 [compound 154] | 116 | 38 | – | –
10 | 97.4 | 43.7 | – | – | Cc1cc(NC2CCCN(C(C)c3ccc4nccnc4c3)C2)cc(C)n1 (racemic) [compound 156] | 89 | 468 | – | –
11 | – | 0.955 | 102.2 | – | CC(=O)Nc1ncc([C@@H](C)N2CCC[C@@H](COc3cc(C)nc(C)c3)C2)s1 (single isomer, unassigned) [compound 137] | – | – | 8.83 | 94.7
12 | 101 | 10 | – | – | Cc1cc(CC2CCCN(C(C)c3ccc4nccnc4c3)C2)cc(C)n1 (racemic) [compound 139] | 75 | 170 | – | –
13 | 101 | 70.8 | – | – | CC(=O)Nc1ncc(CN2CCC[C@H](Oc3cc(C)nc(C)c3)C2)s1 [compound 16] | 115 | 63.1 | – | –
14 | 102 | 53.7 | – | – | CC(=O)Nc1ncc(CN2CCCC(COc3cc(C)nc(C)c3)C2)o1 (stereo not shown) [compound 138] | 74.2 | 437 | – | –
15 | 101 | 22.9 | – | – | CC(=O)Nc1ncc(CN2CC[C@H](Cc3ccnc(F)c3)C2)s1 [compound 56] | 90.3 | 64.6 | – | –
16 | 101 | 25.7 | – | – | CC(=O)Nc1ncc(CN2CC[C@H](Cc3cc(C)cnn3)C2)s1 [compound 59] | 80.3 | 145 | – | –
17 | 99.9 | 72.4 | – | – | CC(=O)Nc1ncc(S(=O)(=O)N2CCC[C@H](Cc3cc(C)nc(C)c3)C2)s1 [compound 33] | 33.8 | > 1000 | – | –
18 | 102 | 8.71 | – | – | CC(=O)Nc1ncc(CN2CCC[C@@H](Cc3cc(C)nc(C)c3)C2)s1 [compound 29] | 108 | 56.2 | – | –
19 | 100 | 28.2 | – | – | CC(=O)Nc1ncc(C(C)N2CCCC(COc3cc(C)nc(C)c3)C2)s1 (single isomer, unassigned) [compound 134] | 79.5 | 52.5 | – | –
20 | 99.3 | 17.8 | – | – | CC(=O)Nc1ncc(CN2CCCC(c3cc(C)nc(C)c3)C2)s1 (stereo not shown) [compound 7] | 98.9 | 8.91 | – | –
21 | – | – | – | – | Cc1cc(C[C@H]2CCN(C(C)c3ccc4scnc4c3)C2)cc(C)n1 (mixture of isomers) [compound 88] | 50.7 | 603 | – | –
22 | 99 | 2.63 | – | – | CC(=O)Nc1ncc(CN2C[C@@H](Cc3cc(C)nc(C)c3)CC[C@H]2C)s1 (racemic) [compound 166] | – | – | – | –
23 | 79.2 | 3470 | – | – | Cc1cc([C@@H]2CCCN([C@@H](C)c3ccc4sc(C)nc4c3)C2)cc(C)n1 [compound 116] | – | – | – | –
24 | 91.9 | 1230 | – | – | CC(=O)Nc1ncc(CN2CCCC(COc3cc(C)nc(C)c3)C2)[nH]1 (racemic) [compound 132] | – | – | – | –
